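The compound was tested at five concentrations on cells cultured in 96-well plates, with a 48-hour exposure period. Here, GI50 denotes the concentration required for 50% inhibition of growth. TGI: total growth inhibition.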

Test in all cases: NCI tumour cell line growth inhibition, 48 h
Assay [1] relates to HCC-2998 colon.
Assay [2] has as its system SN12C renal.
The subject of assay [3] is MDA-MB-435.
The subject of assay [4] is MCF7 breast.
The test system of assay [5] is UO-31 renal.
Assay [6] concerns RXF 393 renal.
Assay [7] relates to RPMI-8226 leukemia.
In assay [8] the test system is OVCAR-8 ovarian.
Assay [9] concerns HT29 colon.
Assay [10] relates to SK-OV-3 ovarian.

For `CC(C)(O)C1CCC(Nc2ccc3ncc(-c4cccc(C(F)(F)F)c4)n3n2)CC1` (stereo unspecified), the GI50 in assay [1] is 3260 nM; in assay [2], 3170 nM; in assay [3], 2060 nM; in assay [4] it was 2750 nM; in [5], 1070 nM; in assay [6] it was 1110 nM. In addition, the GI50 in assay [7] is 266 nM; in [8], 2970 nM; in assay [9], 2230 nM; in assay [10] it was 2680 nM. Besides, the TGI was more than 100000 nM in assay [1]; 17000 nM in assay [2]; more than 100000 nM in [3]; 12500 nM in assay [4]; 11000 nM in assay [5]; 2810 nM in assay [6]. Moreover, the TGI worked out at 790 nM in [7], 13400 nM in assay [8], 12000 nM in assay [9] and 9190 nM in assay [10].
In the case of `C=CCNCCCN1C(=O)c2ccc3c4c(ccc(c24)C1=O)C(=O)N(CCCNCC=C)C3=O`, the GI50 in assay [1] was 428 nM; in assay [2], 399 nM; in [3] it was 199 nM; in assay [4], 157 nM; in assay [5] it was 327 nM; in assay [6], 344 nM. Moreover, the GI50 in [7] was 385 nM; in [8], 312 nM; in [9], 157 nM; in assay [10], 775 nM. Moreover, the TGI in assay [1] turned out to be 1540 nM; in [2], 1780 nM; in assay [3], 434 nM; in assay [4] it was 336 nM; in assay [5], 2290 nM; in assay [6], 1520 nM. In addition, the TGI worked out at 3550 nM in assay [7], 2110 nM in assay [8], 499 nM in assay [9] and 3610 nM in assay [10].
With `c1cc(CCN2CCCCC2)ccn1`, the TGI in [2], in assay [3], in assay [4], in assay [5], in [6] and in [7] was more than 100000 nM each time. Also, the TGI in assay [8], in [9] and in assay [10] was more than 100000 nM in each case.
Take `C=CC1=C[C@@H]2[C@@H]3O[C@]4(CC[C@H](O4)[C@@H](C)C[C@@H](O)C3=O)C[C@H](O)C3=NCC[C@@]32CC1`: the GI50 in assay [1], in [2], in assay [3], in assay [4], in assay [5] and in assay [6] was less than 3.33 nM each time. The GI50 in [7], in assay [8], in assay [9] and in assay [10] was less than 3.33 nM throughout. Further, the TGI was less than 3.33 nM in assay [1]; 11 nM in assay [2]; 3.34 nM in assay [3]; less than 3.33 nM in assay [4]; less than 3.33 nM in [5]; less than 3.33 nM in assay [6]. For the same compound, the TGI in assay [7] is less than 3.33 nM; in [8], 44 nM; in assay [10], 7.95 nM.
Turning to `COc1ccc2c(c1)c(-c1nc(-c3c[nH]c4ncccc34)cs1)cn2CCCCN1CCOCC1`, the GI50 was 1910 nM in [1]; 1910 nM in [2]; 1700 nM in [3]; 1560 nM in [4]; 1430 nM in assay [5]; 1730 nM in [6]. Besides, the GI50 in [7] is 1990 nM; in assay [9], 2180 nM; in assay [10], 2370 nM. Further, the TGI in assay [1] is 3700 nM; in assay [2], 4190 nM; in assay [3], 3170 nM; in assay [4] it was 3560 nM; in [5] it was 3230 nM; in assay [6] it was 3380 nM. In addition, the figures for the TGI in [7], in assay [9] and in [10] were 4720 nM, 3940 nM and 5270 nM, respectively.
With `N#Cc1c(N)nc(N2CCOCC2)c(C#N)c1-c1ccc(Cl)cc1`, the GI50 in [1] is 21700 nM; in assay [2], 50900 nM; in [3], 65300 nM; in [4] it was 23200 nM; in assay [6], 475 nM; in assay [7], 26500 nM. Moreover, the values for the GI50 in [8], in assay [9] and in assay [10] were 28000 nM, 43300 nM and 47200 nM, respectively. Also, the TGI in [1] is 99200 nM; in assay [2], more than 100000 nM; in assay [3], more than 100000 nM; in assay [4], more than 100000 nM; in [6], 45100 nM; in assay [7], more than 100000 nM. Further, the TGI in [8], in [9] and in assay [10] was more than 100000 nM throughout.
`Cn1ccc2c(c1=O)C(=O)c1nccc3c1c-2nc1ccccc13`: the GI50 in assay [1] was 1720 nM; in assay [2], 1560 nM; in [3], 1620 nM; in [4] it was 871 nM; in assay [5], 1550 nM; in assay [6], 1490 nM. For the same compound, the GI50 in assay [7] is 2580 nM; in assay [10], 1740 nM. Besides, the TGI in assay [1] was 3150 nM; in assay [2] it was 3030 nM; in [3], 3130 nM; in assay [4], 2340 nM; in [5], 3210 nM; in [6] it was 2950 nM. Further, the figures for the TGI in [7] and in [10] were 8680 nM and 3150 nM, respectively.
With `COc1ccc(-c2cc(-c3ccccc3)nc(N3CCN(CCNc4ccnc5cc(Cl)ccc45)CC3)n2)cc1`, the GI50 in [1] is 1460 nM; in assay [2] it was 1640 nM; in assay [3], 1800 nM; in assay [4], 1710 nM; in [5] it was 1400 nM; in assay [6], 842 nM. For the same compound, the GI50 is 1650 nM in assay [7] and 10300 nM in assay [10]. For the same compound, the TGI in [1] was 3020 nM; in assay [2], 3340 nM; in assay [3], 3310 nM; in [4], 3450 nM; in assay [5], 3370 nM; in [6], 2270 nM. Also, the TGI amounted to 4570 nM in assay [7] and 22000 nM in [10].

The record behind these values is PubChem BioAssay (NCI).
